For the assay, the system named is H. pylori Sydney strain 1 (HPSS1). Kind of assay: In vitro bactericidal activity against H. pylori. The class given is cell-based. Particulars: Helicobacter pylori; kills 3 logs (99.9%) of bacteria; samples pretreated in 0.1 N HCl 1 h; 24 h incubation; read-out: minimal bactericidal concentration (MBC). Here is the method: To mimic the gastric environment, for example, samples were treated in 0.1 N HCl for 1 h prior to incubation with bacteria. This also ensured the dissolution of micromotors and consecutive drug release. […] Specifically, it was determined that the minimal bactericidal concentration (MBC) values of the samples, defined as the minimal concentration of an antimicrobial agent that kills 3 logs (99.9%) of the bacteria. […] Moreover, bare Mg-based micromotors with corresponding amount of motors were used as negative controls. […] Overall, FIG. 13D verifies that the activity of the loaded drug was not compromised compared to free drug. The example findings validate the potential use of these drug-loaded micromotors for therapeutic applications. In Vitro Anti-H. pylori Activity. H. pylori Sydney strain 1 (HPSS1) was cultured from frozen stock and routinely maintained on Columbia agar supplemented with 5% (vol/vol) laked horse blood at 37° C. under microaerobic conditions (e.g., 10% CO2, 85% N2, and 5% 02). For example, broth cultures of H. pylori were prepared by subculturing fresh colonies from agar plates into Brain heart infusion (BHI) supplemented with 5% fetal bovine serum (FBS) and incubated overnight at 37° C. under microaerobic conditions with moderate reciprocal shaking. […] The plates were cultured for 4 days before the colony-forming unit (CFU) of H. pylori was quantified. […]

Data on one compound can be found in patent US12016948B2, “Micromotors and nanomotors for gastrointestinal diagnosis and treatment applications” (The Regents of the University of California, priority 2017, dated 2024).

SMILES strings stand for the structures. Converted amounts (≈) assume the structure as drawn.

As for `CC[C@H]1OC(=O)[C@H](C)[C@@H](O[C@H]2C[C@@](C)(OC)[C@@H](O)[C@H](C)O2)[C@H](C)[C@@H](O[C@@H]2O[C@H](C)C[C@H](N(C)C)[C@H]2O)[C@](C)(OC)C[C@@H](C)C(=O)[C@H](C)[C@@H](O)[C@]1(C)O` [free CLR, clarithromycin], the MBC came to 0.25 µg/mL (≈ 0.334 µM).
